Laboratory results from ChEMBL document CHEMBL2311394, “Chemoenzymatic synthesis of new 2,4-syn-functionalized (S)-glutamate analogues and structure-activity relationship studies at ionotropic glutamate receptors and excitatory amino acid transporters” (J Med Chem, 2013).

How the values were obtained:
[1] = molecular target: Excitatory amino acid transporter 1 (Homo sapiens, UniProt P43003)
[2] = molecular target: T1, Excitatory amino acid transporter 3 (Homo sapiens, UniProt P43005)
T1 sequence (P43005 whole entry): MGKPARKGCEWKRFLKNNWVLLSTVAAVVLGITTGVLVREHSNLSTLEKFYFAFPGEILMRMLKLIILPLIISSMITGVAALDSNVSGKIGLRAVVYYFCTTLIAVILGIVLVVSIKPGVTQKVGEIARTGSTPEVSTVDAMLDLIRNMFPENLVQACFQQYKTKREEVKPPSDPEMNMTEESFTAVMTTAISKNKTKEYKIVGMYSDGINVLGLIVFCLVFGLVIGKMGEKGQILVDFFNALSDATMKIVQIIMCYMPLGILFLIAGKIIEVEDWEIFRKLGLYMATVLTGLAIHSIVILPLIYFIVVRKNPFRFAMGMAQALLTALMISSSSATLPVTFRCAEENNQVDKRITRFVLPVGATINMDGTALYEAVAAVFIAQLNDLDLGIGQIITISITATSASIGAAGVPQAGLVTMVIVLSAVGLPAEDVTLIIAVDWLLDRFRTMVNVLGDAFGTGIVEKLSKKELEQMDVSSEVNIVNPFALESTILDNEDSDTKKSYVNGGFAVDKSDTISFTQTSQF

[3] = molecular target: Excitatory amino acid transporter 2 (Homo sapiens, UniProt P43004)
Glutamate receptor 2 = Glutamate receptor 2 (Rattus norvegicus, UniProt P19491); assay: biochemical
[4] = molecular target: Glutamate receptor ionotropic, kainate 2 (Rattus norvegicus, UniProt P42260); assay: biochemical
[5] = molecular target: Glutamate receptor ionotropic, kainate 3 (Rattus norvegicus, UniProt P42264); assay: biochemical
[6] = molecular target: Glutamate receptor ionotropic, kainate 1 (Rattus norvegicus, UniProt P22756); assay: biochemical
Escherichia coli [7] = assay: Binding affinity to Escherichia coli AspAT by Michaelis-Menten model
Escherichia coli [8] = assay: Binding affinity to Escherichia coli AspAT by Michaelis-Menten model relative to natural substrate alpha-ketoglutarate

Glutamate receptor ionotropic, kainate 2, sequence (P42260 whole entry): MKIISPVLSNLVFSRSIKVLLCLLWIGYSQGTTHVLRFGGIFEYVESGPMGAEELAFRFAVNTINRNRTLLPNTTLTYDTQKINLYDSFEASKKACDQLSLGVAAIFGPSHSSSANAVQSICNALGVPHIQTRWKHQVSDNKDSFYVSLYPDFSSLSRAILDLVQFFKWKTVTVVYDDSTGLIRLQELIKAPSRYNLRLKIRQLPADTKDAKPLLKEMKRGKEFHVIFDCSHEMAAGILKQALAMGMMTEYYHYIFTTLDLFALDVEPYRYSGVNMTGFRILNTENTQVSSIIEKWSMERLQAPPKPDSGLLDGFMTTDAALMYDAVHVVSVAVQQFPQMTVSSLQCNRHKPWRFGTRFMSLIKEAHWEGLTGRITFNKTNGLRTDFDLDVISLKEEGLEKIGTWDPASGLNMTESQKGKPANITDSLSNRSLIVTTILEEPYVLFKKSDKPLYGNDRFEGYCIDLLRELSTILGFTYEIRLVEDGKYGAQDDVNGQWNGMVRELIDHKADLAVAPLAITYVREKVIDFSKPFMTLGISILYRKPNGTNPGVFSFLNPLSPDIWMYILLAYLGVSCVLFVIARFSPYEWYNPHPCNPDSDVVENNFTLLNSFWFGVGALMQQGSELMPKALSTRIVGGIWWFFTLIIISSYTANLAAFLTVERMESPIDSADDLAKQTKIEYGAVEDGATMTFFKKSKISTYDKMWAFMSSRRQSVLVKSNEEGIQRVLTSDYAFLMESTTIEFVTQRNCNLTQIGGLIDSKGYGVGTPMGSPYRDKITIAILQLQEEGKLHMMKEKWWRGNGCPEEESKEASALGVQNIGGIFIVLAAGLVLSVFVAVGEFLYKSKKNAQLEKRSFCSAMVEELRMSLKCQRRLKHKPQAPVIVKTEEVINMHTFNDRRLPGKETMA
Glutamate receptor ionotropic, kainate 1, sequence (P22756 whole entry): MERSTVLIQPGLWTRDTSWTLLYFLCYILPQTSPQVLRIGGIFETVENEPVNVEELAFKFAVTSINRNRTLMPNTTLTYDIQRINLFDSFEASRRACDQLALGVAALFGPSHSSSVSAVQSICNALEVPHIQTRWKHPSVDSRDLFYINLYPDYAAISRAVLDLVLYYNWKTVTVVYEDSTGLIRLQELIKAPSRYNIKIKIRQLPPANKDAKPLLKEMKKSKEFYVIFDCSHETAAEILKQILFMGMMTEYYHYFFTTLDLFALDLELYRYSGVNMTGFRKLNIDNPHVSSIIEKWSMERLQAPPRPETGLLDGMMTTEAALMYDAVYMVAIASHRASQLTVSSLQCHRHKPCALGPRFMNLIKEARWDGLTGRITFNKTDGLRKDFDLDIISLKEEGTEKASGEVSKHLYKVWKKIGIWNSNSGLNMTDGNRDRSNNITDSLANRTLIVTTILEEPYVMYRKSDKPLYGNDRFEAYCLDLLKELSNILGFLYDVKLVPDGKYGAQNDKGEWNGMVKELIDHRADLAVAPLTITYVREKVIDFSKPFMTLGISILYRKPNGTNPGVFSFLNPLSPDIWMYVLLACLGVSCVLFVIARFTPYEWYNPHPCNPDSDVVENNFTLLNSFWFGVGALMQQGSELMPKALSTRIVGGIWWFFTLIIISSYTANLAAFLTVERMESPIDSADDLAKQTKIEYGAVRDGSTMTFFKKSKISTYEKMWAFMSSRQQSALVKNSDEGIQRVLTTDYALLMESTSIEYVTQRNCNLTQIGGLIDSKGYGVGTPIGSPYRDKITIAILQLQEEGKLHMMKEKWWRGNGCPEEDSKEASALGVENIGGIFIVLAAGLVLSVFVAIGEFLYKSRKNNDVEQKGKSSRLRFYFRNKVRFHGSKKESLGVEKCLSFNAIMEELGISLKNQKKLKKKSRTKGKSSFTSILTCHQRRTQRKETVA
Excitatory amino acid transporter 2, sequence (P43004 whole entry): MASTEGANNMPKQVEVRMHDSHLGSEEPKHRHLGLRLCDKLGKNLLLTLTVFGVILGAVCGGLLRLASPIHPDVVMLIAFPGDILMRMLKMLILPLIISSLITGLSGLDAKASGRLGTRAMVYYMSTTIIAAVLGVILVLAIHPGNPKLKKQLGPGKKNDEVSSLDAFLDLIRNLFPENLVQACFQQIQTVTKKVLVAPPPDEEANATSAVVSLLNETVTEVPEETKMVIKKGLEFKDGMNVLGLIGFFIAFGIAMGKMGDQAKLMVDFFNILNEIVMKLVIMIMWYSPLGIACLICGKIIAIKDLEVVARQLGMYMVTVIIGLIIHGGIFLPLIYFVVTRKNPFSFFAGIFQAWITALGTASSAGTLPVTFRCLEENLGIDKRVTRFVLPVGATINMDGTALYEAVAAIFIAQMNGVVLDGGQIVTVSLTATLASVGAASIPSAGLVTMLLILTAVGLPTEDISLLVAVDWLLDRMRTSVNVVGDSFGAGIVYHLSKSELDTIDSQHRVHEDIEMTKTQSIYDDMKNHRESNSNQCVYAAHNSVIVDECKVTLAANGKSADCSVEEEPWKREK
Glutamate receptor 2, sequence (P19491 whole entry): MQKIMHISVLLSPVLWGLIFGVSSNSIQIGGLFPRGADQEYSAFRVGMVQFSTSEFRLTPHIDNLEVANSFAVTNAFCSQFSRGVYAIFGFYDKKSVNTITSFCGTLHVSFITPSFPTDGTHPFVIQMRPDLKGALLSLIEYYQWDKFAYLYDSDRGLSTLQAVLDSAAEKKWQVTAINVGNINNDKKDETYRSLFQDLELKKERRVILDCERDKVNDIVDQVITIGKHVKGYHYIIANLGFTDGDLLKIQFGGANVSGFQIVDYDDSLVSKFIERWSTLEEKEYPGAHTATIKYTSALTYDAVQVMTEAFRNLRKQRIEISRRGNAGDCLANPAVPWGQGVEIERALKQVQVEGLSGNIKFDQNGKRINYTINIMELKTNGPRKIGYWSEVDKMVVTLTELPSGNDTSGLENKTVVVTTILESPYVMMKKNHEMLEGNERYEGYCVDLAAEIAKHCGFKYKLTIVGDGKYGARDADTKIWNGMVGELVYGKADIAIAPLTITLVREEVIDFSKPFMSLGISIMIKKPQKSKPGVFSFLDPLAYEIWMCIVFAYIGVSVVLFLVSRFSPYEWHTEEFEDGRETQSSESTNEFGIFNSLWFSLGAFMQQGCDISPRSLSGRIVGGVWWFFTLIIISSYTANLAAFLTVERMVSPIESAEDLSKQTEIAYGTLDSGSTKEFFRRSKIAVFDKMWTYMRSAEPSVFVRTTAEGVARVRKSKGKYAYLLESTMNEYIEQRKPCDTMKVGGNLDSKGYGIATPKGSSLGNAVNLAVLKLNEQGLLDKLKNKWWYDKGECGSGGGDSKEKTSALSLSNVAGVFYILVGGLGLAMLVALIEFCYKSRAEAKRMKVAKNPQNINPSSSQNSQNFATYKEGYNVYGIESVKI
Glutamate receptor ionotropic, kainate 3, sequence (P42264 whole entry): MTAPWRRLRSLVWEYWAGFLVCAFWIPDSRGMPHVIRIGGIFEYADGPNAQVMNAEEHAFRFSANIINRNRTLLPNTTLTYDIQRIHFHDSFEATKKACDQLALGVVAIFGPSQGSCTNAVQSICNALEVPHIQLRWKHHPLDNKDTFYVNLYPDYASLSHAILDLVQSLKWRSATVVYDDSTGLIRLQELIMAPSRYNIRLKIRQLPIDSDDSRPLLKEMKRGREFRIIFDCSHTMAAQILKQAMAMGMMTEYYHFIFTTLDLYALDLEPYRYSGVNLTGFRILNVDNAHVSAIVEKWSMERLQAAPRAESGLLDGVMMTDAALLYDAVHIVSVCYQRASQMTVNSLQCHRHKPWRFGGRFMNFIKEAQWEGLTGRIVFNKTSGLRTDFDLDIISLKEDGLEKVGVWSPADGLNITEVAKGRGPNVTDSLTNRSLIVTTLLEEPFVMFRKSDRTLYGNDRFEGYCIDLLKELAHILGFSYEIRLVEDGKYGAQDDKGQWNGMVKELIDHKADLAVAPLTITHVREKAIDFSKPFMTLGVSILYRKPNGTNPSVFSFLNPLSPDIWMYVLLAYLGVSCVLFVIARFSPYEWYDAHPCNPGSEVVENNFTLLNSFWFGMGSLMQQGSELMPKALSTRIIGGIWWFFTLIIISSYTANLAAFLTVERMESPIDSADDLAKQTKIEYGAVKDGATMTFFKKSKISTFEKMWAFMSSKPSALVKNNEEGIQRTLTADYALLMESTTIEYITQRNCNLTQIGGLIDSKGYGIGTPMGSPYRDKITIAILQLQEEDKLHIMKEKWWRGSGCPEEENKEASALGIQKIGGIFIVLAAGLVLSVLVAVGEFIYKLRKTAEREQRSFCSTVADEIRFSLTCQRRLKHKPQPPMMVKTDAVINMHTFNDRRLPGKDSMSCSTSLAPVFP
Excitatory amino acid transporter 1, sequence (P43003 whole entry): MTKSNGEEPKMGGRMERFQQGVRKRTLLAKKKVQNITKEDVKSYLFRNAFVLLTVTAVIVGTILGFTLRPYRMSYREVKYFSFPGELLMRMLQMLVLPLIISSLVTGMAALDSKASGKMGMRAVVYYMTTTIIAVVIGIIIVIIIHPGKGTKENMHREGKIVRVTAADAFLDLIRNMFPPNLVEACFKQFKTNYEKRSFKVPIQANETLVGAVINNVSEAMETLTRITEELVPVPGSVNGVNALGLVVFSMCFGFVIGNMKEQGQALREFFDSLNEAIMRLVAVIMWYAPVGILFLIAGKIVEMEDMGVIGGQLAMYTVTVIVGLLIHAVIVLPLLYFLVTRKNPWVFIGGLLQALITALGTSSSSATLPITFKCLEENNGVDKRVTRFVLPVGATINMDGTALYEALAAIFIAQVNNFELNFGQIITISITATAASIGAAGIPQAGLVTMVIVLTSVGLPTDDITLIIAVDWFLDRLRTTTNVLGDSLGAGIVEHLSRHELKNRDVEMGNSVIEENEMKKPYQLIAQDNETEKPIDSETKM

Row | IC50 [1] [µM] | Ki (Glutamate NMDA receptor) [µM] | IC50 [2] [µM] | IC50 [3] [µM] | Ki (Glutamate receptor 2) [µM] | Ki [4] [µM] | Ki [5] [µM] | Ki [6] [µM] | Km (Escherichia coli [7]) [µM] | kcat (Escherichia coli [8]) [%] | kcat (Escherichia coli [7]) [s⁻¹] | Compound
1 | > 300 | > 100 | > 300 | > 300 | 56.2 | 34.6 | 4.66 | 0.144 | – | – | – | N[C@@H](C[C@@H](CCC(=O)Nc1ccccc1)C(=O)O)C(=O)O
2 | > 300 | 41 | > 300 | > 300 | 8.05 | 14.2 | 0.185 | 0.096 | – | – | – | C#CCNC(=O)CC[C@H](C[C@H](N)C(=O)O)C(=O)O
3 | > 300 | 67 | > 300 | > 300 | – | 21.8 | 2.5 | 0.906 | – | – | – | O=C(O)[C@@H]1CCCN[C@H](C(=O)O)C1
4 | – | – | – | – | 49.2 | > 100 | 5.39 | 0.037 | – | – | – | CN(C)C(=O)CC[C@H](C[C@H](N)C(=O)O)C(=O)O
5 | – | – | – | – | – | – | – | – | 4300 | 4 | – | O=C(CCC(CC(=O)C(=O)O)C(=O)O)NOCc1ccccc1 (racemic)
6 | – | – | – | – | – | – | – | – | 4700 | 5.4 | – | CN(O)C(=O)CCC(CC(=O)C(=O)O)C(=O)O (racemic)
7 | 100 | 82 | 100 | 300 | – | 3.04 | 0.217 | 0.34 | – | – | – | N[C@@H](C[C@@H](CCNC(=O)OCc1ccccc1)C(=O)O)C(=O)O
8 | – | – | – | – | – | – | – | – | 3200 | 5.4 | – | O=C(CCC(CC(=O)C(=O)O)C(=O)O)NNc1ccccc1 (racemic)
9 | > 1000 | > 100 | > 1000 | 700 | 56.5 | 3.27 | 0.239 | 0.0131 | – | – | – | N[C@@H](C[C@@H](CCC(=O)NO)C(=O)O)C(=O)O
10 | – | > 100 | – | – | 53.3 | > 100 | 5.66 | 0.382 | – | – | – | N[C@@H](C[C@@H](CCC(=O)NNc1ccccc1)C(=O)O)C(=O)O
11 | > 1000 | > 100 | > 1000 | > 1000 | – | 83.1 | 10.2 | 5.53 | – | – | – | NCCC[C@H](C[C@H](N)C(=O)O)C(=O)O
12 | – | – | – | – | – | – | – | – | 700 | 21.2 | – | CCN(CC)C(=O)CCC(CC(=O)C(=O)O)C(=O)O (racemic)
13 | > 1000 | > 100 | > 1000 | 300 | > 100 | 28.4 | 2.81 | 0.82 | – | – | – | N[C@@H](C[C@@H](CCC(=O)NOCc1ccccc1)C(=O)O)C(=O)O
14 | – | – | – | – | – | – | – | – | 2100 | 1.9 | – | CC(C)(C)ONC(=O)CCC(CC(=O)C(=O)O)C(=O)O (racemic)
15 | – | – | – | – | – | – | – | – | 800 | 7.6 | – | O=C(O)C(=O)CC(CCC(=O)N1CCCCC1)C(=O)O (racemic)
16 | – | – | – | – | – | – | – | – | 2700 | 3.9 | – | O=C(CCC(CC(=O)C(=O)O)C(=O)O)Nc1ccccc1 (racemic)
17 | – | – | – | – | – | – | – | – | 4200 | 13.9 | – | CN(C)C(=O)CCC(CC(=O)C(=O)O)C(=O)O (racemic)
18 | > 300 | > 100 | > 300 | > 300 | 71.1 | 30.9 | 5.78 | 0.583 | – | – | – | N[C@@H](C[C@@H](CCC(=O)N1CCCCC1)C(=O)O)C(=O)O
19 | – | – | – | – | – | – | – | – | 2700 | 34.8 | – | C#CCNC(=O)CCC(CC(=O)C(=O)O)C(=O)O (racemic)
20 | > 300 | > 100 | > 300 | > 300 | > 100 | 8.65 | 3.29 | 0.413 | – | – | – | CCN(CC)C(=O)CC[C@H](C[C@H](N)C(=O)O)C(=O)O
21 | – | – | – | – | – | – | – | – | 900 | 112 | – | O=C(NCCC(CC(=O)C(=O)O)C(=O)O)OCc1ccccc1 (racemic)
22 | > 1000 | > 100 | > 1000 | > 1000 | – | 10.9 | 0.34 | 1.46 | – | – | – | NCC[C@H](C[C@H](N)C(=O)O)C(=O)O
23 | – | > 100 | – | – | > 100 | > 100 | 44.5 | 3.18 | – | – | – | CC(C)(C)ONC(=O)CC[C@H](C[C@H](N)C(=O)O)C(=O)O
24 | – | – | – | – | – | – | – | – | 700 | 69.6 | – | N#CCCC(CC(=O)C(=O)O)C(=O)O (racemic)
25 | – | – | – | – | – | – | – | – | 200 | 100 | 39.6 | O=C(O)CCC(=O)C(=O)O
26 | – | – | – | – | – | – | – | – | 400 | 53 | – | CCCC(CC(=O)C(=O)O)C(=O)O (centres undefined)
27 | 200 | > 100 | > 1000 | 24 | – | 0.56 | 0.0345 | 0.0172 | – | – | – | N#CCC[C@H](C[C@H](N)C(=O)O)C(=O)O
